Reference: ChEMBL document CHEMBL5729595, “MASP-2 inhibitors and methods of use” (2023)

Assay: Enzymatic Assay for MASP-2: The assay was run at room temperature in an assay buffer containing 20 mM Hepes, pH 7.4, 140 mM NaCl and 0.1% Tween 20. Assay parameters were adjusted such that the assay was linear with respect to time, enzyme and substrate concentrations. Under these optimized assays conditions, IC50 values were equivalent to Ki values, except in a few cases of “tight binding” inhibitors. Cases of “tight binding” or possible “slow binding” inhibitors were handled by the methods described in Copeland R. A. (2013) Evaluation of Enzyme Inhibitors in Drug Discovery. 2nd Ed., John Wiley and Sons, Inc., Chapters 5-7.

Q: For `C[C@H](NC(=O)[C@H]1C[C@H](c2ccccc2)CCN1)C(=O)NCc1ccc(C(=N)N)cc1`, which Ki is on record?
A: Its Ki is < 500 nM.
